# Data reported in ChEMBL document CHEMBL3421543, “Melanocortin antagonist tetrapeptides with minimal agonist activity at the mouse melanocortin-3 receptor” (ACS Med Chem Lett, 2015).
# Activity calls are given as the source filed them. No cut-off for these calls is given here. Where a SMILES comes first, the peptide text is derived from it. [ ]: non-standard residue; d: D form. dPhe(4-I) = N[C@H](Cc1ccc(I)cc1)C(=O)O
# How the values were obtained:
# Type in all cases: cell-based
# [1] = molecular target: T1, Melanocortin receptor 4 (Mus musculus, UniProt P56450); test: Agonist activity at mouse melanocortin-4 receptor transfected in HEK293 cells after 6 hrs by beta-galactosidase reporter gene assay
# T1 sequence (P56450 whole entry): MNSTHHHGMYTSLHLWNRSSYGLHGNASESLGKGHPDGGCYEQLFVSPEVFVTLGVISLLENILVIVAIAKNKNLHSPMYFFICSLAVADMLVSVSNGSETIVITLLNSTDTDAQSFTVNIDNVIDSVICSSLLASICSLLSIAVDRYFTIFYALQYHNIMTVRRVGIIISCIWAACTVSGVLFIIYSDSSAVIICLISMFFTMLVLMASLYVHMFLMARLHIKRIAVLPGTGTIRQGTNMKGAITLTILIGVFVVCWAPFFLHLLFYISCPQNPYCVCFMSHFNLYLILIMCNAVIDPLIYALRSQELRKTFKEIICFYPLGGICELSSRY
# [2] = molecular target: Melanocortin receptor 5 (Mus musculus, UniProt P41149); test: Agonist activity at mouse melanocortin-5 receptor transfected in HEK293 cells after 6 hrs by beta-galactosidase reporter gene assay
# Sequence of Melanocortin receptor 5 (P41149 whole entry): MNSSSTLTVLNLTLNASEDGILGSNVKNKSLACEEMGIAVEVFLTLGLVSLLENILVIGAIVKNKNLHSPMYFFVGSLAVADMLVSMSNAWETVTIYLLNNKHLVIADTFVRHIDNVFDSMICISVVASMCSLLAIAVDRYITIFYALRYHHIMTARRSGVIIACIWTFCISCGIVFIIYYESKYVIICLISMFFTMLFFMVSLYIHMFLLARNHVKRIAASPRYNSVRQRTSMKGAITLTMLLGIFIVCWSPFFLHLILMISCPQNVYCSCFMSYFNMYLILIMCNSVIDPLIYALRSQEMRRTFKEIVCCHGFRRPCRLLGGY
# [3] = molecular target: Melanocortin receptor 4 (Mus musculus) (UniProt P56450); test: (§1) Antagonist activity at mouse melanocortin-4 receptor transfected in HEK293 cells assessed as inhibition of MTII-induced response after 6 hrs by Schild analysis
# Sequence of Melanocortin receptor 4 (Mus musculus) (P56450 whole entry): as the sequence (P56450 whole entry) above
# [4] = molecular target: T1, Melanocortin receptor 4; test: as §1; details: for Kb: read-out: pA2 (converted)
# [5] = molecular target: T2, Melanocortin receptor 3 (Mus musculus, UniProt P33033); test: Agonist activity at mouse melanocortin-3 receptor transfected in HEK293 cells after 6 hrs by beta-galactosidase reporter gene assay
# T2 sequence (P33033 whole entry): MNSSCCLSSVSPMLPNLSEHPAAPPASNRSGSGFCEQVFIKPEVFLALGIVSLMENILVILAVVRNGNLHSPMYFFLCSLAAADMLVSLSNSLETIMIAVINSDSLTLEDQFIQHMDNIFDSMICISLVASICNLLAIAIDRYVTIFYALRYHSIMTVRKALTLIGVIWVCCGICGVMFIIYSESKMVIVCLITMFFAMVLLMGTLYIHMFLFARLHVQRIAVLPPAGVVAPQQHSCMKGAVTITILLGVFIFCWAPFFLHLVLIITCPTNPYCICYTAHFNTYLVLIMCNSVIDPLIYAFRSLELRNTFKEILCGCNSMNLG
# [6] = molecular target: Melanocortin receptor 3 (Mus musculus) (UniProt P33033); test: Antagonist activity at mouse melanocortin-3 receptor transfected in HEK293 cells assessed as inhibition of MTII-induced response up to 100 uM after 6 hrs by Schild analysis
# Sequence of Melanocortin receptor 3 (Mus musculus) (P33033 whole entry): as above
# [7] = molecular target: Melanocyte-stimulating hormone receptor (Mus musculus, UniProt Q01727); test: Agonist activity at mouse melanocortin-1 receptor transfected in HEK293 cells after 6 hrs by beta-galactosidase reporter gene assay
# Sequence of Melanocyte-stimulating hormone receptor (Q01727 whole entry): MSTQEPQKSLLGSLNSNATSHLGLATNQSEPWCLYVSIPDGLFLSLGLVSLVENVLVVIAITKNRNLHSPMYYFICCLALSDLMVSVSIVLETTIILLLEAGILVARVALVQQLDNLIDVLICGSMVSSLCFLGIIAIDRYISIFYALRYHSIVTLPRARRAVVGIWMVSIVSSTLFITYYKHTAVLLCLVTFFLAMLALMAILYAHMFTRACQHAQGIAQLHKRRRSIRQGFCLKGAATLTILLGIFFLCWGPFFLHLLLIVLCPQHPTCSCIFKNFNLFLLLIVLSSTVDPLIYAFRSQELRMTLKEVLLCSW
# [8] = molecular target: Melanocortin receptor 3 (Mus musculus) (UniProt P33033); test: Antagonist activity at mouse melanocortin-3 receptor transfected in HEK293 cells assessed as inhibition of MTII-induced response up to 10 uM after 6 hrs by Schild analysis
# [9] = molecular target: Melanocortin receptor 3 (Mus musculus) (UniProt P33033); test: Agonist activity at mouse melanocortin-3 receptor transfected in HEK293 cells at 100 uM after 6 hrs by beta-galactosidase reporter gene assay relative to MTII-induced maximal response
# [10] = molecular target: Melanocortin receptor 4 (Mus musculus) (UniProt P56450); test: Agonist activity at mouse melanocortin-4 receptor transfected in HEK293 cells at 100 uM after 6 hrs by beta-galactosidase reporter gene assay relative to MTII-induced maximal response
# [11] = molecular target: Melanocortin receptor 3 (Mus musculus) (UniProt P33033); test: (§2) Antagonist activity at mouse melanocortin-3 receptor transfected in HEK293 cells assessed as inhibition of MTII-induced response after 6 hrs by Schild analysis
# [12] = molecular target: T2, Melanocortin receptor 3; test: as §2; details: read-out: pA2 (converted)
# [13] = molecular target: Melanocortin receptor 3 (Mus musculus) (UniProt P33033); test: Agonist activity at mouse melanocortin-3 receptor transfected in HEK293 cells at 1 uM after 6 hrs by beta-galactosidase reporter gene assay relative to MTII-induced maximal response
Structure (SMILES),EC50 [1] [nM],EC50 [2] [nM],Kb [4] [nM],EC50 [5] [nM],EC50 [7] [nM],further results
CC(=O)N[C@@H](Cc1c[nH]c2ccccc12)C(=O)N[C@H](Cc1ccc(I)cc1)C(=O)N[C@@H](CCCNC(=N)N)C(=O)N[C@@H](Cc1ccc(-c2ccccc2)cc1)C(N)=O,> 100000,7800,501,> 100000,20700,INH [3]: 480 nM; inhibition [6]: inactive
CC(=O)N[C@@H](Cc1c[nH]c2ccccc12)C(=O)N[C@H](Cc1ccc(I)cc1)C(=O)N[C@@H](CCCNC(=N)N)C(=O)N1Cc2ccccc2C[C@H]1C(N)=O,,5300,1000,,2700,inhibition [8]: inactive; Activity [9]: 48%; Activity [10]: 44%; INH [3]: 1000 nM
CC(=O)N[C@@H](Cc1cnc[nH]1)C(=O)N[C@H](Cc1ccccc1)C(=O)N[C@@H](CCCNC(=N)N)C(=O)N[C@@H](Cc1c[nH]c2ccccc12)C(N)=O,,,,,,pA2 [11]: inactive; pA2 [3]: inactive
CC(=O)N[C@@H](Cc1c[nH]c2ccccc12)C(=O)N[C@H](Cc1ccc(I)cc1)C(=O)N[C@@H](CCCNC(=N)N)C(=O)N[C@@H](Cc1ccc2ccccc2c1)C(N)=O,> 100000,20300,5.01,> 100000,5500,Kb [12]: 1260 nM; Ki [4]: < 6 nM
CC(=O)N[C@@H](Cc1c[nH]c2ccccc12)C(=O)N[C@H](Cc1ccc(I)cc1)C(=O)N[C@@H](CCCNC(=N)N)C(=O)N[C@@H](Cc1c[nH]c2ccccc12)C(N)=O (Ac-W[dPhe(4-I)]RW-NH2),> 100000,2800,,> 100000,2000,
CCCC[C@H](NC(C)=O)C(=O)N[C@H]1CC(=O)NCCCC[C@@H](C(N)=O)NC(=O)[C@H](Cc2c[nH]c3ccccc23)NC(=O)[C@H](CCCNC(=N)N)NC(=O)[C@@H](Cc2ccc3ccccc3c2)NC(=O)[C@H](Cc2c[nH]cn2)NC1=O,,,,,0.67,Activity [13]: 54%
CC(=O)N[C@@H](Cc1c[nH]c2ccccc12)C(=O)N[C@H](Cc1ccc(I)cc1)C(=O)N[C@@H](CCCNC(=N)N)C(=O)N[C@@H](Cc1ccccc1)C(N)=O,,1800,158,,6500,Activity [9]: 66%; Activity [10]: 44%
CC(=O)N[C@@H](Cc1c[nH]c2ccccc12)C(=O)N[C@H](Cc1ccc(I)cc1)C(=O)N[C@@H](CCCNC(=N)N)C(=O)N[C@@H](Cc1csc2ccccc12)C(N)=O,> 100000,23700,79.4,> 100000,8300,inhibition [6]: inactive
CC(=O)N[C@@H](Cc1c[nH]c2ccccc12)C(=O)N[C@H](Cc1ccc(I)cc1)C(=O)N[C@@H](CCCNC(=N)N)C(=O)N[C@H](Cc1ccc2ccccc2c1)C(N)=O,> 100000,19700,5.01,> 100000,5800,Kb [12]: 2000 nM; Ki [4]: < 6 nM
CC(=O)N[C@@H](Cc1cnc[nH]1)C(=O)N[C@H](Cc1ccccc1)C(=O)N[C@@H](CCCN=C(N)N)C(=O)N[C@@H](Cc1c[nH]c2ccccc12)C(N)=O,5.4,4.6,,,,
